SMILES strings stand for the structures.

In this assay the target is T1, Pancreatic triacylglycerol lipase (Sus scrofa, UniProt P00591).
T1 sequence (P00591 whole entry): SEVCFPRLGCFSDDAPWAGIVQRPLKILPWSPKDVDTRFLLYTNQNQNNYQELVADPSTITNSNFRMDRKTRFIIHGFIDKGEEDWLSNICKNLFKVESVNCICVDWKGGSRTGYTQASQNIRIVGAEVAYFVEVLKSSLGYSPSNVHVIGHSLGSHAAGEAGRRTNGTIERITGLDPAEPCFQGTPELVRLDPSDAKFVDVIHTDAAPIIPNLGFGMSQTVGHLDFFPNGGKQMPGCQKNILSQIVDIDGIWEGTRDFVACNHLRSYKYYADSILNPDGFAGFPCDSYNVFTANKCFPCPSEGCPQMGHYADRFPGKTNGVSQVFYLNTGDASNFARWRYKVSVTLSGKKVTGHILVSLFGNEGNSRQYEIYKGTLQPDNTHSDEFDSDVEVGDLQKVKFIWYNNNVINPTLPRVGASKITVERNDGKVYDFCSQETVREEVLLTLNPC
Description: Inhibition Assay: Particularly, pancreatic lipase inhibiting activity was measured by the conventional method known to those in the art (Kim, J. H.; Kim, H. J.; Park, H. W.; Youn, S. H.; Choi, D. Y.; Shin, C. S. FEMS Microbiol. Lett. 2007, 276, 93.). To prepare the enzyme buffer, 30 mL (10 units) of pig pancreatic lipase solution (Sigma, St. Louis, Mo.) and 1 mM EDTA (pH 6.8) were mixed with 10 mM MOPS (morpholinepropanesulphonic acid), which was added to 850 mL of tris buffer (100 mM Tris-HCl and 5 mM CaCl2, pH 7.0). Then, 100 mL of the rotenoisin A or B of the present invention was mixed with the prepared enzyme buffer at the experimental concentration. […] 20 mL of substrate solution containing 20 mM p-nitrophenylbutyrate dissolved in dimethyl formaide was added to the enzyme buffer, followed by culture for 15 minutes at 37° C. that was the temperature adequate for enzyme reaction.

For the molecule `C=C(C)[C@H]1Cc2c(ccc3c2OC2COc4cc(OC)c(OC)cc4C2[C@@]32CO2)O1` (stereo partly specified), the IC50 (in general, the midpoint of a concentration-inhibition curve) turned out to be 6.3 µM.

(Values after ChEMBL document CHEMBL3886681, “Rotenone derivatives and a use thereof” (2016).)
